Measured values reported in US11952364B2, “TRK inhibitors useful as anticancer drugs” (TYLIGAND BIOSCIENCE (SHANGHAI) LIMITED, priority 2018, dated 2024).
Where two headings read alike, the source gives them in different places.

System: Ba/F3 ETV6-NTRK3-G696C cells
Assay: Proliferation of Ba/F3 ETV6-NTRK3-G696C cells (CellTiter-Glo)
Type: cell-based, mouse
Conditions: Mus musculus, read-out: Ba/F3 ETV6-NTRK3-G696C, IC50
Description: Ba/F3 ETV6-NTRK3-G696C is a stable transgenic cell line constructed by KYinno Biotechnology Co., Ltd. on mouse primary B cell Ba/F3 wherein NTRK3 is highly expressed with a mutation of G at position […] to C and fused with ETV6 to form ETV6-NTRK3. • [Test method]: Promega's CellTiter-Glo® Luminescent Cell Viability Assay kit was used to evaluate the inhibitory activity of the compounds on the proliferation of Ba/F3 ETV6-NTRK3-G696C cells. • [Instrument]: Spectramax M3 multifunctional microplate reader from Molecular Devices. • [Test materials]: Ba/F3 ETV6-NTRK3-G696C cell line (constructed by KYinno Biotechnology Co., Ltd. (Beijing)), 96-well transparent flat-bottomed black-walled cell culture plate (Corning, cat #3603), RPMI-1640 media (GE, product number #SH30027.01), fetal bovine serum FBS (Thermo Fisher, cat #10099-141), CellTiter-Glo® Luminescent Cell Viability Assay kit (Promega, cat #G7572), PBS (Solarbio, cat #P1020), DMSO (Sigma, cat #D2650). • [Experimental procedure]: When resuscitating Ba/F3 ETV6-NTRK3-G696C cells, • the freezing tube was quickly shaken in a 37° C. water bath to melt within 1 minute. The thawed cell suspension was mixed uniformly with RPMI1640 medium containing 10% FBS, centrifuged at 1000 rpm for 5 minutes, and the supernatant discarded. 5 mL of complete medium (RPMI1640 medium with 10% FBS) was taken to resuspend the cell pellets, charged into a cell culture flask with a bottom area of 25 cm^2, and incubated in a cell incubator at 37° C., 95% humidity and 5% CO2. Cells were allowed to passage when the number of cells reached about 10^6 cells/mL. For cell passage, the old cell suspension was directly pipetted evenly, 1/5 of the cell suspension was kept, 4 mL of new complete medium was added, after pipetting evenly, the cell flask was placed in the cell incubator for further culturing. Cell plating was performed when the number of cells reached about 10^6 cells/mL again. For cell plating, 1/5 of the cell suspension was kept for further culturing as in the cell passage method, and the remaining 4/5 of the cell suspension was placed in a 15 mL centrifuge tube, detected for cell viability by Trypan blue exclusion method to ensure that cell viability was above 90%. A cell suspension with a density of 5.56×10^4 viable cells/mL was prepared with complete medium, and 90 μL of such cell suspension was added to a 96-well cell culture plate to obtain the cell density of 5000 viable cells/mL in the cell culture plate. A control group containing no cells, no compound and only complete medium (i.e. culture medium control) and a control group containing no compound but containing cells (i.e. cell control) were set. The cell plate was placed in a cell incubator overnight. The 10 mM compound stock solution in DMSO was first serially diluted with DMSO at a dilution factor of 3.16 times, to obtain 9 concentrations, and the 10th concentration was set as DMSO control without compound. Then, PBS was used to dilute the DMSO solutions of compounds of different concentrations, at a dilution factor of 100 times, so that the DMSO concentration in the compound solution of each concentration was 1%. Finally, 10 μL of each of the above solutions was added to the corresponding cell culture plate, so that the initial compound concentration was 10 μM, with the remaining concentrations being successively diluted at a dilution factor of 3.16 times, and the DMSO content in the cell culture plate was 0.1%. The cell plate was placed in a cell incubator and cultured for 72 hours. For endpoint detection, the CellTiter-Glo reagent was melted, and the cell plate was moved to room temperature to equilibrate for 30 minutes, added with 100 μL of CellTiter-Glo for each well, and shaken on an orbital shaker for 5 minutes to fully lyse the cells. […]

SMILES: Cn1ncc2cc(Oc3ccc(NC(=O)c4ccc(C(F)(F)F)n(-c5ccc(F)cc5)c4=O)cc3F)c(-c3cn[nH]c3)cc21 [Example 1, N-(3-fluoro-4-(1-methyl-6-(1H-pyrazol-4-yl)-1H-indazol-5-yloxy)phenyl)-1-(4-fluorophenyl)-6-trifluoromethyl-2-oxo-1,2-dihydmpyridine-3-carboxamide monomethanesulfonate]
- IC50 (BaF3, 72 h, Table 7, 72 hours): 33 nM

SMILES: COc1ccc(C(=O)Nc2ccc(Oc3cc4cnn(C)c4cc3-c3cn[nH]c3)c(F)c2)c(=O)n1-c1ccc(F)cc1 [Example 12, N-(3-fluoro-4-(1-methyl-6-(1H-pyrazol-4-yl)-1H-indazol-5-yloxy)phenyl)-1-(4-fluorophenyl)-6-methoxy-2-oxo-1,2-dihydropyridine-3-carboxamide]
- IC50 (BaF3, Table 7-1, separate test): 3 nM

SMILES: Cc1ccc(C(=O)Nc2ccc(Oc3cc4cnn(C)c4cc3-c3cn[nH]c3)c(F)c2)c(=O)n1-c1ccc(F)cc1 [Merestinib, reference compound]
- IC50 (BaF3, 72 h, Table 7, 72 hours): 10 nM
- IC50 (BaF3, Table 7-1, separate test): 13 nM
- IC50 (BaF3, Table 7-2, separate test): 1.7 nM
